# Laboratory results: patent US10253069B2, “Compositions and methods for regulating arterial tone” (University of Virginia Patent Foundation, priority 2012, dated 2019)
# Tests used:
# [1] = molecular target: T1, eNOS/Hb α interaction (Homo sapiens, UniProt P29474); assay: Purified eNOS and Hb α protein interaction (co-immunoprecipitation, Western blot); type: binding
# T1 construct: purchased Origene
# T1 sequence (P29474 2-1203 limits assumed): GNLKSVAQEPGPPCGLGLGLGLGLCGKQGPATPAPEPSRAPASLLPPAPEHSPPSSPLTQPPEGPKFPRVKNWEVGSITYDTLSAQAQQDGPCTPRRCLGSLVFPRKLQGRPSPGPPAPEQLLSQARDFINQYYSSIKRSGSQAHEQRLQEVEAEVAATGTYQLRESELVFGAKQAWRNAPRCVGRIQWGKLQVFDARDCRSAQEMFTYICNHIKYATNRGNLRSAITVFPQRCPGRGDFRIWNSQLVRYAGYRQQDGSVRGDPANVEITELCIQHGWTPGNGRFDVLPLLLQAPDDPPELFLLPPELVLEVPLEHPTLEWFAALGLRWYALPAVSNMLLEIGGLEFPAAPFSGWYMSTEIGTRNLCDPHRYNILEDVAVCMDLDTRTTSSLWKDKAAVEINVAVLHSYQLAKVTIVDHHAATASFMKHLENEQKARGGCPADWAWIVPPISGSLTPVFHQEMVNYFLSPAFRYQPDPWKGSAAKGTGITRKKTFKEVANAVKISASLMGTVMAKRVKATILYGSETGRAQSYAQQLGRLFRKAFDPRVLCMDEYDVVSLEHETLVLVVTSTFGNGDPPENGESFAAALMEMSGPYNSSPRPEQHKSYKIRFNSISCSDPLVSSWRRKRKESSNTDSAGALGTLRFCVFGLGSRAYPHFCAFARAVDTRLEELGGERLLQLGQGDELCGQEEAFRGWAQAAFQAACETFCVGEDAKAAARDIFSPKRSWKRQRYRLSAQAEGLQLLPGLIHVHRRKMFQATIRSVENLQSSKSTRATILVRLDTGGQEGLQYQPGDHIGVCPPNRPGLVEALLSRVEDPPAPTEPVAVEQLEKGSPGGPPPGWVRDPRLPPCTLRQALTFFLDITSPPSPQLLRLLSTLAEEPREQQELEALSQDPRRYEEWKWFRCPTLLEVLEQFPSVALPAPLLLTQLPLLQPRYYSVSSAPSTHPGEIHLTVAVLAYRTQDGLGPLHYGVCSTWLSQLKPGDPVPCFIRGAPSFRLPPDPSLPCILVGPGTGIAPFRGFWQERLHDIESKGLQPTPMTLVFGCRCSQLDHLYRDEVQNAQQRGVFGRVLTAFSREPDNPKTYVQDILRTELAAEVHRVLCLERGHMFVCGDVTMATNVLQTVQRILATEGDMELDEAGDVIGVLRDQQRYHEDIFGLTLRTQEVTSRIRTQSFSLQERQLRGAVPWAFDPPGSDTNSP
# Description: Purified Flag-eNOS was purchased from Origene and isolated Hb α chains were generated as previously described^9. Co-immunoprecipitation studies were performed by incubating 1 μg of Flag-eNOS with 5 μmol/L of each peptide (tat-only, Scr X or Hb α X) for 30 minutes at 37° C. while shaking. Then, 1 μg of isolated Hb α chains were added to the Flag-eNOS/peptide complex for an additional 30 minutes at 37° C. shaking. Anti-Flag nickel beads, blocked with 1% bovine albumin serum for 1 hour, were added to each condition for an additional hour with agitation. Proteins were washed 3× with PBS for 15 minutes and purified protein-protein complexes were precipitated using a strong magnet. The nickel beads were incubated with 5×SDS PAGE buffer to elute proteins off the beads. Samples were subjected to Western blot analysis to determine peptide-induced disruption of Hb α and eNOS binding.
# [2] = test system: eNOS phosphorylation on serine 1177; assay: Western blot of pS1177 eNOS in coronary endothelial cells; type: cell-based, human; settings: 5 μmol/L peptide, 20 minutes
# Description: Primary coronary endothelial cells (Lonza) were cultured on plastic 6-well dishes as previously described^9. For studies involving basal NO release, endothelial cells were incubated with 5 μmol/L of Scr X or Hb α X for 20 minutes followed by medium collection and nitrite measurements as described below. For bradykinin studies, coronary endothelial cells were grown to confluence followed by serum starvation overnight in a cocktail of Lonza EGM-2 medium supplemented with EGM-2 bullet kit and Opti MEM reduced growth medium using a ratio of 1:9 respectively. The next day, endothelial cells were incubated with Scr X or Hb α X peptide for 20 minutes followed by the addition of 10 μM bradykinin (Sigma) for 5 minutes followed by medium collection for nitrite measurements as described below.
# Endothelial cells were harvested in lysis buffer, sonicated and subjected to electrophoresis using 10% Bis-Tris gels (Invitrogen) as previously described^13. Proteins were transferred to nitrocellulose, incubated with phospho-eNOS S1177 (BD Biosciences) or total eNOS (Sigma) and visualized and quantitated using Li-Cor Odyssey Imager as previously described^14.
# [3] = test system: thoracodorsal arteries; assay: Pressure myography on thoracodorsal arteries, phenylephrine dose response with peptides; parameters: species or system mouse
# [4] = test system: abdominal aortic rings; assay: Abdominal aorta ring assay; parameters: species or system mouse; settings: compared to untreated aortas or aortas treated with Scr X
# Description: Abdominal aortas were isolated, cut into 2 mm wide rings and mounted on a DMT myograph system with low bath volumes as previously described^16. Briefly, rings were stretched at 1.2× resting length in Krebs solution and allowed to equilibrate for 30 min at 37° C. prior to depolarization with […] K^+ [i]. Following the high K^+ contraction, rings were returned to Krebs solution and incubated with 5 μmol/L Scr X or Hb α X peptide for 20 minutes. Cumulative concentrations of phenylephrine (PE) (10^−10-10^−4 mol/L) were added to the rings and the magnitude of the tension response measured in milli-newtons.
# [5] = Blood pressure by radio telemetry, C57BL/6 mice; type: in vivo, mouse; settings: single bolus 0.125 mg/kg intraperitoneal
# Description: Blood pressure was measured in conscious wildtype or eNOS^−/− mice under unrestrained conditions using implanted radio telemetry units. Continuous blood pressure measurements were recorded using Dataquest A.R.T. 20 software (DSI). To do so, mice were anesthetized with isoflurane and the catheters (TA11PA-C10, Data Sciences International (DSI)) were implanted in the left carotid artery. The catheter was tunneled through to the radiotransmitter, which was placed in a subcutaneous pouch along the flank. Mice were allowed to recover for seven days after surgery to regain normal circadian rhythms before arterial pressure measurements and experiments were initiated. Thirty minutes prior to peptide injection, continuous blood pressure readings were recorded. Then, a bolus injection of Scr X or Hb α X peptide, or saline was administered via an intraperitoneal injection at 0.125 mg/kg. One hour post-injection, blood pressure was recorded for a 30 minute duration. The change in blood pressure was calculated by subtracting the average pre injection blood pressure from the average post-injection blood pressure.
substance,measurement,setting,value
"Peptide LSFPTTKTYF (SEQ ID NO:2), first ten amino acids of the Hb α sequence, with HIV-tat tag YGRKKRRQRRR at the N-terminus [Hb α X]",eNOS/Hb α interaction,"[1]; 5 μmol/L peptide, Flag-eNOS and purified Hb α chains",significantly disrupted
same,Inhibition of binding,[1]; purified Hb α and eNOS protein,> 90%
same,Basal eNOS phosphorylation on serine 1177,[2],no differences
same,Constriction in phenylephrine dose response curves,[3]; compared to untreated arteries,significant decrease in constriction
same,"Emax, vascular reactivity dose response curves","[3]; phenylephrine dose response, thoracodorsal arteries perfused with peptide",68.0 ± 5.3 % initial diameter
same,Constriction in phenylephrine dose response curves with L-NAME,[3]; plus L-NAME 100 μmol/L,reversed
same,Phenylephrine dose response curves,[4],no significant change
same,"Systolic, diastolic and mean arterial blood pressure",[5],significant decrease
